In brackets after ≈: the same amount, converted by molar mass. Like-named read-outs stand apart in the source and are kept apart here.
What was measured:
[1] = test system: Proteus mirabilis ATCC29906; experiment: MIC assay, Proteus mirabilis ATCC29906
Description: (§1) Minimum Inhibitory Concentration (MIC) and Minimal Bactericidal Concentration (MBC) Assays. […] Specifically, overnight cultures in an appropriate broth (e.g., Luria Bertani, Mueller-Hinton II) were diluted to 5×10^5 cfu/mL and used to fill wells of a 96-well plate. […] The plates were incubated on a shaker (200 rpm) at 35-37° C. for 18-20 hours, and then the optical density was measured at 595 nm on a microplate reader. Samples of each well without visible growth were diluted and spread on LB agar petri dishes. The petri dishes were incubated overnight at 37° C., and the colonies were counted.

M. tuberculosis H37Rv = experiment: Antibiotic assay against Mycobacterium tuberculosis (IC90); type: cell-based; conditions: for MIC: read-out: IC90 (footnote a; column head MIC)
[2] = test system: Pseudomonas aeruginosa PAO1; experiment: MIC assay, Pseudomonas aeruginosa PAO1
Description: (§2) Minimum Inhibitory Concentration (MIC) and Minimal Bactericidal Concentration (MBC) Assays. […] Specifically, overnight cultures in an appropriate broth (e.g., Luria Bertani, Mueller-Hinton II) were diluted to 5×10^5 cfu/mL and used to fill wells of a 96-well plate. […] The plates were incubated on a shaker (200 rpm) at 35-37° C. for 18-20 hours, and then the optical density was measured at 595 nm on a microplate reader.

[3] = test system: Staphylococcus aureus USA200; experiment: MIC assay, S. aureus USA200
Description: as §2

[4] = test system: Acinetobacter baumannii ATCC17978; experiment: MIC assay, Acinetobacter baumannii ATCC17978
Description: as §1

[5] = test system: Staphylococcus aureus ATCC BAA-42; experiment: MIC assay, S. aureus ATCC BAA-42
Description: as §2

[6] = test system: Staphylococcus aureus USA100; experiment: MIC assay, S. aureus USA100
Description: as §2

[7] = test system: Staphylococcus aureus ATCC12600; experiment: MIC assay, wild type S. aureus ATCC 12600; type: cell-based
[8] = test system: Staphylococcus aureus NCTC 8325 pT181; experiment: MIC assay, S. aureus NCTC 8325 pT181
Description: as §2

[9] = test system: Staphylococcus aureus USA800; experiment: MIC assay, S. aureus USA800
Description: as §2

[10] = test system: Enterococcus faecium Com15; experiment: MIC assay, Enterococcus faecium Com15
Description: as §2

[11] = test system: Listeria monocytogenes ATCC15313; experiment: MIC assay, Listeria monocytogenes ATCC15313
Description: as §2

[12] = test system: Salmonella enterica IR715; experiment: MIC assay, Salmonella enterica IR715
Description: as §1

[13] = test system: Staphylococcus epidermidis RP62A; experiment: MIC assay, Staphylococcus epidermidis RP62A
Description: as §2

[14] = test system: Staphylococcus aureus ATCC BAA-1721; experiment: MIC assay, S. aureus ATCC BAA-1721
Description: as §2

[15] = test system: S. aureus ATCC 12600 D471Y mutant strain
[16] = test system: rifamycin resistant S. aureus strains carrying RNAP mutations; experiment: Activity against rifamycin resistant S. aureus strains carrying RNAP mutations; conditions: FIG. 6D
[17] = test system: S. aureus ATCC 12600 D471Y mutant strain; experiment: microbe, parasite or virus in culture; conditions: Staphylococcus aureus, ATCC12600
[18] = molecular target: T1, S447L mutant DNA-dependent RNA polymerase from Mycobacterium smegmatis (Mycolicibacterium smegmatis, UniProt P60281, S447L); type: biochemical; conditions: S447L M. smegmatis RNAP mutant
T1 construct: made in house

[19] = Mycobacterium tuberculosis H37Rv, Table 5
[20] = Mycobacterium tuberculosis, H37RV
[21] = Staphylococcus aureus, ATCCBAA42
[22] = Staphylococcus aureus, NCTC8325
[23] = Staphylococcus aureus, ATCCBAA1721

| SMILES | MIC [1] | MIC [2] | MIC [3] | MIC [4] | MIC [6] | MIC [7] | MIC [9] | MIC [11] | MIC [12] | MIC [13] | MIC (M. tuberculosis H37Rv; [19]) | IC90 (M. tuberculosis H37Rv; [20]) | MIC [5, 21] | MIC [8, 22] | MIC ([10]; Enterococcus faecium, COM15) | activity against rifamycin resistant S. aureus strains [16] | MIC [17] | MIC [14, 23] | further results |
| --- | --- | --- | --- | --- | --- | --- | --- | --- | --- | --- | --- | --- | --- | --- | --- | --- | --- | --- | --- |
| CC(=O)O[C@@H]1[C@@H](C)[C@@H](O)[C@@H](C)[C@@H](O)[C@@H]([C@@H](C)OC(=O)C(C)(C)CC(=O)O)/C=C/C=C(\C)C(=O)NC2=CC(=O)c3c(c(O)c(C)c4c3C(=O)[C@](C)(O/C=C/[C@H](O[C@@H]3C[C@@H]5OCO[C@@H]5[C@H](C)O3)[C@H]1C)O4)C2=O [Kang A, kanglemycin A, reference compound] | >64 µg/mL | 64 µg/mL (≈ 65.2 µM) | 2.0 µg/mL (≈ 2.04 µM) | >64 µg/mL | 1.0 µg/mL (≈ 1.02 µM) | 0.62 µg/mL (≈ 0.631 µM) | 0.5 µg/mL (≈ 0.509 µM) | 2.0 µg/mL (≈ 2.04 µM) | >64 µg/mL | 0.25 µg/mL (≈ 0.255 µM) |  |  |  |  |  |  |  |  | IC90 (M. tuberculosis H37Rv; M. tuberculosis H37Rv, read-out: IC90): 12.5 µM; IC90 (footnote a; column head MIC) (M. tuberculosis H37Rv; [19]): 13 µg/mL (≈ 13.2 µM); MIC ([5]; Staphylococcus aureus ATCC BAA-42): 1.0 µg/mL (≈ 1.02 µM); MIC ([8]; Staphylococcus aureus NCTC 8325 pT181): 0.25 µg/mL (≈ 0.255 µM); MIC ([10]; Enterococcus faecium Com15): 64 µg/mL (≈ 65.2 µM); MIC ([14]; Staphylococcus aureus ATCC BAA-1721): 2.0 µg/mL (≈ 2.04 µM) |
| CC(=O)OC1C(C)C(OC2CC3OCOC3C(C)O2)/C=C/OC2(C)CC(O)c3c(c(C)c(O)c4c3C(=O)C=C(NC(=O)/C(C)=C\C=C\C(C(C)OC(=O)C(C)(C)CC(=O)O)C(O)C(C)C(O)C1C)C4=O)O2 (stereo not drawn) [Kang V1, kanglemycin V1] | > 64 µg/mL | 64 µg/mL (≈ 64.1 µM) | 0.25 µg/mL (≈ 0.25 µM) | > 64 µg/mL | 0.13 µg/mL (≈ 0.13 µM) | 0.069 µg/mL (≈ 0.0691 µM) | 0.063 µg/mL (≈ 0.0631 µM) | 1 µg/mL (≈ 1 µM) | > 64 µg/mL | 0.031 µg/mL (≈ 0.0311 µM) | 3.1 µg/mL (≈ 3.11 µM) | 3.12 µM | 0.13 µg/mL (≈ 0.13 µM) | 0.063 µg/mL (≈ 0.0631 µM) | 32 µg/mL (≈ 32.1 µM) | active | 0.069 µg/mL (≈ 0.0691 µM) | 0.063 µg/mL (≈ 0.0631 µM) | fold lower MIC than rifampicin [15]: ~80 fold |
| CC(=O)OC1C(C)C(OC2CC3OCOC3C(C)O2)/C=C/OC2(C)OC3=C(C)C(=O)c4c(O)c(cc5c4C3=C2OCO5)NC(=O)/C(C)=C\C=C\C(C(C)OC(=O)C(C)(C)CC(=O)O)C(O)C(C)C(O)C1C (stereo not drawn) [Kang V2, kanglemycin V2] | > 64 µg/mL | 64 µg/mL (≈ 64.3 µM) | 2 µg/mL (≈ 2.01 µM) | > 64 µg/mL | 1 µg/mL (≈ 1 µM) | 0.62 µg/mL (≈ 0.622 µM) | 1 µg/mL (≈ 1 µM) | 1 µg/mL (≈ 1 µM) | > 64 µg/mL | 0.25 µg/mL (≈ 0.251 µM) | 1.6 µg/mL (≈ 1.61 µM) | 1.56 µM | 1 µg/mL (≈ 1 µM) | 0.25 µg/mL (≈ 0.251 µM) | 64 µg/mL (≈ 64.3 µM) | active |  | 0.25 µg/mL (≈ 0.251 µM) | in vitro activity against RNAP (run-off transcription) [18]: highest potency |
| CO[C@H]1/C=C/O[C@@]2(C)Oc3c(C)c(O)c4c(O)c(c(/C=N/N5CCN(C)CC5)c(O)c4c3C2=O)NC(=O)/C(C)=C\C=C\[C@H](C)[C@H](O)[C@@H](C)[C@@H](O)[C@@H](C)[C@H](OC(C)=O)[C@@H]1C [Rifampicin, rifampicin, reference compound] |  | 32 µg/mL (≈ 38.9 µM) | 0.0078 µg/mL (≈ 0.00948 µM) |  | 0.0078 µg/mL (≈ 0.00948 µM) |  | 0.016 µg/mL (≈ 0.0194 µM) | 0.031 µg/mL (≈ 0.0377 µM) |  | 0.016 µg/mL (≈ 0.0194 µM) | 0.2 µg/mL (≈ 0.243 µM) |  | 0.016 µg/mL (≈ 0.0194 µM) | 0.031 µg/mL (≈ 0.0377 µM) | 4 µg/mL (≈ 4.86 µM) |  | 5.6 µg/mL (≈ 6.8 µM) | 0.0078 µg/mL (≈ 0.00948 µM) | MIC ([7]; read-out: MIC): 0.023 µg/mL (≈ 0.0279 µM) |

Source: patent US11325920B2, “Antibacterial compounds, compositions thereof, and methods using same” (The Rockefeller University, priority 2018, dated 2022)
